# Data as given in ChEMBL document CHEMBL2086378, “Eudesmane-type sesquiterpenoid and guaianolides from Kandelia candel in a screening program for compounds to overcome TRAIL resistance” (2012).
# What was measured:
# Format in all cases: functional
# AGS [1] = assay: Cytotoxicity against TRAIL-resistant human AGS cells assessed as inhibition of cell viability at 50 uM after 24 hrs by fluorescence assay in presence of 100 ng/ml TRAIL relative to in absence of TRAIL
# AGS [2] = assay: Cytotoxicity against TRAIL-resistant human AGS cells assessed as inhibition of cell viability at 10 uM after 24 hrs by fluorescence assay in presence of 100 ng/ml TRAIL relative to in absence of TRAIL
# AGS [3] = assay: Cytotoxicity against TRAIL-resistant human AGS cells assessed as inhibition of cell viability at 17.5 uM after 24 hrs by fluorescence assay in presence of 100 ng/ml TRAIL relative to in absence of TRAIL
# AGS [4] = assay: Cytotoxicity against TRAIL-resistant human AGS cells assessed as inhibition of cell viability at 80 uM after 24 hrs by fluorescence assay in presence of 100 ng/ml TRAIL relative to in absence of TRAIL
smiles,measurement,setting,value
CC(=O)O[C@H]1CC(C)=C2C(=O)C=C(C)[C@@H]2[C@H]2OC(=O)[C@@H](C)[C@@H]21,inhibition (INH),AGS [1],23%
C/C=C(\C)C(=O)O[C@H]1CC(C)=C2C(=O)C=C(C)[C@@H]2[C@H]2OC(=O)[C@@H](C)[C@@H]21 [MEHIRUGIN B],inhibition (INH),AGS [2],27%
O=c1cc(-c2ccc(O)c(O)c2)oc2cc(O)cc(O)c12 [LUTEOLIN],inhibition (INH),AGS [3],48%
C=C(C(=O)OC)[C@@H]1CC[C@@]2(C)C=CC(=O)C(C)=C2C1,inhibition (INH),AGS [4],29%
